According to patent US20200172491A1, “SUBSTITUTED 5-(HET-)ARYLPYRAZOLAMIDES AND SALTS THEREOF AND THEIR USE AS HERBICIDAL ACTIVE SUBSTANCES” (Bayer CropScience Aktiengesellschaft, priority 2017, published 2020):

System: Matricaria inodora
Experiment: Post-emergence herbicidal action
Type: in vivo
Details: 320 g/ha, rated after about 3 weeks, 100% = plants have died, 0% = like control plants
Method: (§1) Seeds of monocotyledonous and dicotyledonous weeds and crop plants were placed in sandy loam in plastic or wood-fiber pots, covered with soil and cultivated in a greenhouse under controlled growth conditions. 2 to 3 weeks after sowing, the test plants were treated at the one-leaf stage. The compounds of the invention, formulated in the form of wettable powders (WP) or as emulsion concentrates (EC), were then sprayed onto the green parts of the plants as aqueous suspension or emulsion with addition of 0.5% additive at a water application rate of 600 l/ha (converted). After the test plants had been kept in the greenhouse under optimum growth conditions for about 3 weeks, the activity of the preparations was rated visually in comparison to untreated controls. For example, 100% activity=the plants have died, 0% activity=like control plants. Tables B1 to B6 below show the effects of selected compounds of the general formula (I) according to Table A1 at an application rate of 320 g/ha on various harmful plants, which were obtained by the aforementioned experimental procedure.

In order of rising “herbicidal activity on Matricaria inodora (visual rating vs untreated controls)” value:
1. Cc1nn(C)c(-c2ccc(F)cc2Cl)c1C(=O)Nc1ccccc1 [I-002]  100%
2. Cc1nn(C)c(-c2ccc(F)cc2Cl)c1C(=O)Nc1c(F)cc(F)cc1F [I-025]  100%
3. Cc1nn(C)c(-c2ccc(F)cc2Cl)c1C(=O)Nc1cncc(F)c1 [I-032]  100%

System: Amaranthus retroflexus
Experiment: Post-emergence herbicidal action
Type: in vivo
Details: 320 g/ha, rated after about 3 weeks, 100% = plants have died, 0% = like control plants
Method: as §1

In order of falling “herbicidal activity on Amaranthus retroflexus (visual rating vs untreated controls)” value:
1. Cc1nn(C)c(-c2ccc(F)cc2Cl)c1C(=O)Nc1ccccc1 [I-002]  100%
2. Cc1nn(C)c(-c2ccc(F)cc2Cl)c1C(=O)NC1CCCC1 [I-003]  100%
3. Cc1nn(C)c(-c2ccc(F)cc2Cl)c1C(=O)Nc1ccccc1F [I-006]  100%
4. Cc1nn(C)c(-c2ccc(F)cc2Cl)c1C(=O)Nc1ccc(F)cc1 [I-007]  100%
5. Cc1cccnc1NC(=O)c1c(C)nn(C)c1-c1ccc(F)cc1Cl [I-010]  100%
6. Cc1nn(C)c(-c2ccc(F)cc2Cl)c1C(=O)Nc1cc(Cl)ccc1Cl [I-017]  100%
7. Cc1nn(C)c(-c2ccc(F)cc2Cl)c1C(=O)Nc1cc(Cl)cc(Cl)c1 [I-020]  100%
8. Cc1nn(C)c(-c2ccc(F)cc2Cl)c1C(=O)Nc1cc(Cl)ccc1F [I-021]  100%
9. Cc1nn(C)c(-c2ccc(F)cc2Cl)c1C(=O)Nc1ccc(Cl)cc1 [I-024]  100%
10. Cc1nn(C)c(-c2ccc(F)cc2Cl)c1C(=O)Nc1c(F)cc(F)cc1F [I-025]  100%
11. Cc1nn(C)c(-c2ccc(F)cc2Cl)c1C(=O)Nc1cccnc1F [I-031]  100%
12. Cc1nn(C)c(-c2ccc(F)cc2Cl)c1C(=O)Nc1cncc(F)c1 [I-032]  100%
13. Cc1nn(C)c(-c2ccc(F)cc2Cl)c1C(=O)Nc1ncccc1F [I-011]  90%
14. Cc1nn(C)c(-c2ccc(F)cc2Cl)c1C(=O)Nc1ccc(F)nc1 [I-023]  90%
15. CCn1nc(C)c(C(=O)Nc2c(Cl)cccc2Cl)c1-c1ccc(F)cc1Cl [I-026]  90%
16. Cc1nn(C)c(-c2cc(F)ccc2Cl)c1C(=O)Nc1c(Cl)cccc1Cl [I-014]  80%
17. Cc1nn(C)c(-c2ccc(F)cc2Cl)c1C(=O)NC1CCCCC1 [I-018]  80%
18. Cc1nn(C)c(-c2ccc(F)cc2)c1C(=O)Nc1c(Cl)cccc1Cl [I-033]  80%

System: Stellaria media
Experiment: Post-emergence herbicidal action
Type: in vivo
Details: 320 g/ha, rated after about 3 weeks, 100% = plants have died, 0% = like control plants
Method: as §1

In order of falling “herbicidal activity on Stellaria media (visual rating vs untreated controls)” value:
1. Cc1nn(C)c(-c2ccc(F)cc2Cl)c1C(=O)Nc1ccccc1 [I-002]  100%
2. Cc1nn(C)c(-c2ccc(F)cc2Cl)c1C(=O)Nc1ccccc1F [I-006]  100%
3. Cc1cccnc1NC(=O)c1c(C)nn(C)c1-c1ccc(F)cc1Cl [I-010]  100%
4. Cc1nn(C)c(-c2ccc(F)cc2Cl)c1C(=O)Nc1cc(Cl)ccc1Cl [I-017]  100%
5. Cc1nn(C)c(-c2ccc(F)cc2Cl)c1C(=O)Nc1cc(Cl)ccc1F [I-021]  100%
6. Cc1nn(C)c(-c2ccc(F)cc2Cl)c1C(=O)Nc1ccc(F)nc1 [I-023]  100%
7. Cc1nn(C)c(-c2ccc(F)cc2Cl)c1C(=O)Nc1ccc(Cl)cc1 [I-024]  100%
8. Cc1nn(C)c(-c2ccc(F)cc2Cl)c1C(=O)Nc1cccnc1F [I-031]  100%
9. Cc1nn(C)c(-c2ccc(F)cc2Cl)c1C(=O)Nc1cncc(F)c1 [I-032]  100%
10. Cc1nn(C)c(-c2cc(F)ccc2Cl)c1C(=O)Nc1c(Cl)cccc1Cl [I-014]  90%
11. Cc1nn(C)c(-c2ccc(F)cc2Cl)c1C(=O)Nc1c(F)cc(F)cc1F [I-025]  90%
12. Cc1nn(C)c(-c2ccc(F)cc2Cl)c1C(=O)Nc1ccc(F)cc1 [I-007]  80%
13. Cc1nn(C)c(-c2ccc(F)cc2Cl)c1C(=O)Nc1ncccc1F [I-011]  80%

System: Ipomoea purpurea
Experiment: Post-emergence herbicidal action
Type: in vivo
Details: 320 g/ha, rated after about 3 weeks, 100% = plants have died, 0% = like control plants
Method: as §1

In order of falling “herbicidal activity on Ipomoea purpurea (visual rating vs untreated controls)” value:
1. Cc1nn(C)c(-c2ccc(F)cc2Cl)c1C(=O)Nc1cncc(F)c1 [I-032]  90%
2. Cc1nn(C)c(-c2ccc(F)cc2Cl)c1C(=O)Nc1ccccc1 [I-002]  80%
3. Cc1nn(C)c(-c2ccc(F)cc2Cl)c1C(=O)Nc1c(F)cc(F)cc1F [I-025]  80%

System: Viola tricolor
Experiment: Post-emergence herbicidal action
Type: in vivo
Details: 320 g/ha, rated after about 3 weeks, 100% = plants have died, 0% = like control plants
Method: as §1

In order of falling “herbicidal activity on Viola tricolor (visual rating vs untreated controls)” value:
1. Cc1nn(C)c(-c2ccc(F)cc2Cl)c1C(=O)Nc1ccccc1 [I-002]  100%
2. Cc1nn(C)c(-c2ccc(F)cc2Cl)c1C(=O)Nc1ccccc1F [I-006]  100%
3. Cc1cccnc1NC(=O)c1c(C)nn(C)c1-c1ccc(F)cc1Cl [I-010]  100%
4. Cc1nn(C)c(-c2cc(F)ccc2Cl)c1C(=O)Nc1c(Cl)cccc1Cl [I-014]  100%
5. Cc1nn(C)c(-c2ccc(F)cc2Cl)c1C(=O)Nc1cc(Cl)cc(Cl)c1 [I-020]  100%
6. Cc1nn(C)c(-c2ccc(F)cc2Cl)c1C(=O)Nc1cc(Cl)ccc1F [I-021]  100%
7. Cc1nn(C)c(-c2ccc(F)cc2Cl)c1C(=O)Nc1ccc(Cl)cc1 [I-024]  100%
8. Cc1nn(C)c(-c2ccc(F)cc2Cl)c1C(=O)Nc1c(F)cc(F)cc1F [I-025]  100%
9. Cc1nn(C)c(-c2ccc(F)cc2Cl)c1C(=O)Nc1cccnc1F [I-031]  100%
10. Cc1nn(C)c(-c2ccc(F)cc2Cl)c1C(=O)Nc1cncc(F)c1 [I-032]  100%
11. Cc1nn(C)c(-c2ccc(F)cc2Cl)c1C(=O)Nc1cc(Cl)ccc1Cl [I-017]  90%
12. CCn1nc(C)c(C(=O)Nc2c(Cl)cccc2Cl)c1-c1ccc(F)cc1Cl [I-026]  80%
13. Cc1nn(C)c(-c2ccc(F)cc2)c1C(=O)Nc1c(Cl)cccc1Cl [I-033]  80%

System: Matricaria inodora
Experiment: Pre-emergence herbicidal action
Type: in vivo
Details: 320 g/ha, scored after about 3 weeks, 100% = plants have died, 0% = like control plants
Text: (§2) Seeds of monocotyledonous and dicotyledonous weed plants and crop plants were placed in plastic or wood-fiber pots and covered with soil. The compounds of the invention, formulated in the form of wettable powders (WP) or as emulsion concentrates (EC), were then applied to the surface of the covering soil as aqueous suspension or emulsion with addition of 0.5% additive at a water application rate equivalent to 600 l/ha. After the treatment, the pots were placed in a greenhouse and kept under good growth conditions for the test plants. After about 3 weeks, the effect of the preparations is scored visually in comparison with untreated controls as percentages. For example, 100% activity=the plants have died, 0% activity=like control plants. Tables B7 to B11 below show the effects of selected compounds of the general formula (I) according to Table A1 at an application rate of 320 g/ha on various harmful plants, which were obtained by the aforementioned experimental procedure.

In order of rising “herbicidal activity on Matricaria inodora (visual rating vs untreated controls)” value:
1. Cc1nn(C)c(-c2ccc(F)cc2Cl)c1C(=O)Nc1cc(Cl)ccc1Cl [I-017]  80%
2. Cc1nn(C)c(-c2ccc(F)cc2Cl)c1C(=O)NC1CCCC1 [I-003]  90%
3. Cc1nn(C)c(-c2ccc(F)cc2Cl)c1C(=O)Nc1ccccc1F [I-006]  90%
4. Cc1nn(C)c(-c2ccc(F)cc2Cl)c1C(=O)Nc1ccc(F)nc1 [I-023]  90%
5. Cc1nn(C)c(-c2ccc(F)cc2Cl)c1C(=O)Nc1ccccc1 [I-002]  100%
6. Cc1cccnc1NC(=O)c1c(C)nn(C)c1-c1ccc(F)cc1Cl [I-010]  100%
7. Cc1nn(C)c(-c2ccc(F)cc2Cl)c1C(=O)Nc1cc(Cl)cc(Cl)c1 [I-020]  100%
8. Cc1nn(C)c(-c2ccc(F)cc2Cl)c1C(=O)Nc1cc(Cl)ccc1F [I-021]  100%
9. Cc1nn(C)c(-c2ccc(F)cc2Cl)c1C(=O)Nc1c(F)cc(F)cc1F [I-025]  100%
10. Cc1nn(C)c(-c2ccc(F)cc2Cl)c1C(=O)Nc1cccnc1F [I-031]  100%
11. Cc1nn(C)c(-c2ccc(F)cc2Cl)c1C(=O)Nc1cncc(F)c1 [I-032]  100%

System: Amaranthus retroflexus
Experiment: Pre-emergence herbicidal action
Type: in vivo
Details: 320 g/ha, scored after about 3 weeks, 100% = plants have died, 0% = like control plants
Text: as §2

In order of rising “herbicidal activity on Amaranthus retroflexus (visual rating vs untreated controls)” value:
1. Cc1nn(C)c(-c2ccc(F)cc2Cl)c1C(=O)Nc1ncccc1F [I-011]  80%
2. Cc1nn(C)c(-c2ccc(F)cc2Cl)c1C(=O)Nc1ccc(F)cc1 [I-007]  90%
3. Cc1nn(C)c(-c2ccc(F)cc2Cl)c1C(=O)Nc1ccccc1 [I-002]  100%
4. Cc1nn(C)c(-c2ccc(F)cc2Cl)c1C(=O)Nc1ccccc1F [I-006]  100%
5. Cc1cccnc1NC(=O)c1c(C)nn(C)c1-c1ccc(F)cc1Cl [I-010]  100%
6. Cc1nn(C)c(-c2ccc(F)cc2Cl)c1C(=O)Nc1cc(Cl)ccc1Cl [I-017]  100%
7. Cc1nn(C)c(-c2ccc(F)cc2Cl)c1C(=O)Nc1cc(Cl)cc(Cl)c1 [I-020]  100%
8. Cc1nn(C)c(-c2ccc(F)cc2Cl)c1C(=O)Nc1cc(Cl)ccc1F [I-021]  100%
9. Cc1nn(C)c(-c2ccc(F)cc2Cl)c1C(=O)Nc1c(F)cc(F)cc1F [I-025]  100%
10. Cc1nn(C)c(-c2ccc(F)cc2Cl)c1C(=O)Nc1cccnc1F [I-031]  100%
11. Cc1nn(C)c(-c2ccc(F)cc2Cl)c1C(=O)Nc1cncc(F)c1 [I-032]  100%

System: Stellaria media
Experiment: Pre-emergence herbicidal action
Type: in vivo
Details: 320 g/ha, scored after about 3 weeks, 100% = plants have died, 0% = like control plants
Text: as §2

In order of rising “herbicidal activity on Stellaria media (visual rating vs untreated controls)” value:
1. Cc1nn(C)c(-c2ccc(F)cc2Cl)c1C(=O)NC1CCCC1 [I-003]  80%
2. Cc1nn(C)c(-c2ccc(F)cc2Cl)c1C(=O)Nc1ncccc1F [I-011]  80%
3. Cc1nn(C)c(-c2ccc(F)cc2Cl)c1C(=O)Nc1cc(Cl)cc(Cl)c1 [I-020]  90%
4. Cc1nn(C)c(-c2ccc(F)cc2Cl)c1C(=O)Nc1cccnc1F [I-031]  90%
5. Cc1nn(C)c(-c2ccc(F)cc2Cl)c1C(=O)Nc1ccccc1 [I-002]  100%
6. Cc1nn(C)c(-c2ccc(F)cc2Cl)c1C(=O)Nc1ccccc1F [I-006]  100%
7. Cc1nn(C)c(-c2ccc(F)cc2Cl)c1C(=O)Nc1ccc(F)cc1 [I-007]  100%
8. Cc1nn(C)c(-c2ccc(F)cc2Cl)c1C(=O)Nc1cc(Cl)ccc1F [I-021]  100%
9. Cc1nn(C)c(-c2ccc(F)cc2Cl)c1C(=O)Nc1ccc(F)nc1 [I-023]  100%
10. Cc1nn(C)c(-c2ccc(F)cc2Cl)c1C(=O)Nc1c(F)cc(F)cc1F [I-025]  100%

System: Viola tricolor
Experiment: Pre-emergence herbicidal action
Type: in vivo
Details: 320 g/ha, scored after about 3 weeks, 100% = plants have died, 0% = like control plants
Text: as §2

In order of rising “herbicidal activity on Viola tricolor (visual rating vs untreated controls)” value:
1. Cc1nn(C)c(-c2ccc(F)cc2Cl)c1C(=O)Nc1cc(Cl)cc(Cl)c1 [I-020]  80%
2. Cc1nn(C)c(-c2ccc(F)cc2Cl)c1C(=O)Nc1cccnc1F [I-031]  80%
3. Cc1nn(C)c(-c2ccc(F)cc2Cl)c1C(=O)Nc1ccccc1 [I-002]  100%
4. Cc1nn(C)c(-c2ccc(F)cc2Cl)c1C(=O)Nc1ccccc1F [I-006]  100%
5. Cc1nn(C)c(-c2ccc(F)cc2Cl)c1C(=O)Nc1cc(Cl)ccc1F [I-021]  100%
6. Cc1nn(C)c(-c2ccc(F)cc2Cl)c1C(=O)Nc1c(F)cc(F)cc1F [I-025]  100%
